Test results taken from patent publication US20240270811A1, “Glycosylated Neuropeptide Derivative, Pharmaceutical Composition, Intranasal/Nasal Drop Formulation, and Use of Pharmaceutical Composition” (Tokyo University of Science Foundation, priority 2021, published 2024).
Where no end group is shown, it is not given here. The star is where a group is joined. X1 = CC(=O)N[C@@H]1[C@@H](O)[C@H](O[C@@H]2O[C@H](CO)[C@@H](O[C@@H]3O[C@H](CO[C@H]4O[C@H](CO)[C@@H](O)[C@H](O)[C@@H]4O[C@@H]4O[C@H](CO)[C@@H](O[C@@H]5O[C@H](CO[C@]6(C(=O)O)C[C@H](O)[C@@H](NC(C)=O)[C@H]([C@H](O)[C@H](O)CO)O6)[C@H](O)[C@H](O)[C@H]5O)[C@H](O)[C@H]4NC(C)=O)[C@@H](O)[C@H](O[C@H]4O[C@H](CO)[C@@H](O)[C@H](O)[C@@H]4O[C@@H]4O[C@H](CO)[C@@H](O[C@@H]5O[C@H](CO[C@]6(C(=O)O)C[C@H](O)[C@@H](NC(C)=O)[C@H]([C@H](O)[C@H](O)CO)O6)[C@H](O)[C@H](O)[C@H]5O)[C@H](O)[C@H]4NC(C)=O)[C@@H]3O)[C@H](O)[C@H]2NC(C)=O)[C@@H](CO)O[C@H]1NC(=O)C*

Experiment: Observation of section of trigeminal lemniscus after intranasal administration
Assay type: in vivo
Details: 3.0 nmol/mouse intranasal, 15 minutes
Experimental: Mice were intranasally administered with 16% DMSO or a glycosylated GLP-2 derivative (3.0 nmol/mouse). The brain was isolated 15 minutes after the administration, and was subjected to infiltration fixation with 4% PFA overnight. On the day following the isolation, the brain was substituted with 30% sucrose overnight (4° C.). Thereafter, a frozen section of trigeminal lemniscus with a thickness of 30 μm was prepared using a cryostat (CM3050S; Leica Microsystems, WetZlar, Germany).
The frozen section was mounted on a slide glass, and was subjected to blocking for 30 minutes at room temperature with a blocking buffer. Thereafter, the section was added with a first antibody solution including Neuro-Chrom (trade name) Pan Neuronal Marker Antibody-Rabbit, diluted with a blocking buffer (1:500), and subjected to incubation overnight (4° C.). After washing three times with 1×PBS, the section was added with a first antibody solution including a GLP-2 polyclonal antibody diluted with a BSA/PBS solution (1:200), and subjected to incubation for 2 hours at room temperature. After washing three times with 1×PBS, the section was added with a second antibody solution including Alexa Fluor (trademark) 568 Goat Anti-Mouse IgG H&L, diluted 1000 times with a 1% BSA/PBS solution and DAPI ([…]), and subjected to incubation for 1 hour at room temperature. […]

Substance: FFLIPKGRRRRRRRRGGHADGSFSDEMNTILDNLAARDFINWLIQTKITDC(X1)-OH [PAS-CPP-GLP-2 (11-sugar)]
- fluorescence in nerve bundle that constitutes the trigeminal lemniscus: a large amount of fluorescence for a drug was observed
